# Reference: PMC10730852 (Communications Biology, 2023)
# Experiments:
# Cph [1] = tested on: Cph; design: method as in Previous kinetic studies; conditions: ATP as a phosphate donor; ref Previous kinetic studies; read-out: Km value of Cph for CMN IIA; cited from earlier work
# Cph [2] = experiment: Coupled enzyme assay and kinetics of Cph; type: biochemical, Saccharothrix mutabilis subsp. capreolus; conditions: for absorbance at 340 nm, Average of triplicate: substrate + ATP
# Experimental: The phosphorylation reaction was measured by a coupled enzyme assay as following. […] The reactions were mixed well in a final volume of 200 μL in 96-well plates. The Cph001 activity was assayed by determining the oxidation of NADH at 340 nm. The reaction buffer and enzyme concentration of the Cph reaction was followed by previous study. The 340 nm absorbance changes were detected at 30 °C for every 1 min at a time in 15 min on an EPOCH Microplate Reader (BioTek). All reactions were carried out in triplicate.
# Cph001^D189N = experiment: Coupled enzyme assay of Cph001 variant; type: biochemical, Streptosporangium roseum; conditions: for absorbance at 340 nm, Average of triplicate: 2 mM substrate + ATP
# Experimental: (§1) The phosphorylation reaction was measured by a coupled enzyme assay as following. The reaction 1, performed by 0.77 μM Cph001 with 2 mM antibiotic substrates (CMN IIA, CMN IIB, VIO, Kan, or Ery), was coupled to the reaction 2 and 3 in the presence of 4 U PK (pyruvate kinase from rabbit muscle, Merck), 4 U LDH (lactate dehydrogenase from rabbit muscle, Merck), 2 mM ATP or GTP, 2 mM PEP (phosphoenolpyruvate), 0.5 mM NADH, 40 mM KCl and 5 mM MgCl2 in a reaction buffer containing 400 mM NaCl and 20 mM Tris buffer at pH 8.0. The reactions were mixed well in a final volume of 200 μL in 96-well plates. The Cph001 activity was assayed by determining the oxidation of NADH at 340 nm. The reaction buffer and enzyme concentration of the Cph reaction was followed by previous study. The 340 nm absorbance changes were detected at 30 °C for every 1 min at a time in 15 min on an EPOCH Microplate Reader (BioTek). All reactions were carried out in triplicate.
# Cph001^D189A = experiment: Coupled enzyme assay of Cph001 variant; type: biochemical, Streptosporangium roseum; conditions: for absorbance at 340 nm, Average of triplicate: 2 mM substrate + ATP
# Experimental: as §1
# Cph001 = target: T1, Cph001 (Streptosporangium roseum, UniProt D2B3F1); experiment: Isothermal titration calorimetry (ITC) analysis of Cph001; type: binding
# T1 sequence (D2B3F1 1-286): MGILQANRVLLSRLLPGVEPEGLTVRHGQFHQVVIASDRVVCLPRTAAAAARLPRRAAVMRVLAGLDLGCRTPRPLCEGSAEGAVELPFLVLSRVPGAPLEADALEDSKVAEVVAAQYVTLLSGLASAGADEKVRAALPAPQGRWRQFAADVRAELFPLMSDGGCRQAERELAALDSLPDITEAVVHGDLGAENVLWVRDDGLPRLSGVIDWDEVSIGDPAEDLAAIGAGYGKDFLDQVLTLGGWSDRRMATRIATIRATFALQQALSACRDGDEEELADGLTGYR
# Description: The integrated heat areas constitute a differential binding curve that was fitted with a standard single-site binding model by Origin 7.
# [3] = tested on: E. coli/pET-22b (Control); experiment: Disk diffusion assay; type: cell-based, E. coli BL21 Rosetta (DE3); conditions: Escherichia coli, 24 h, read-out: inhibition zones
# Experimental: The E. coli BL21 Rosetta (DE3) strains containing pET22b, and its carrying cph, cph001, cph002, cph003, aph(3′)-Ia, and mphB plasmids were cultured overnight. The cells, respectively, were then diluted to 0.1 OD600 in molten LB agar with 100 μg/mL ampicillin and 500 μM IPTG for the disk diffusion assay. The cells with ampicillin and IPTG were mixed well with molten LB agar and then poured into 10 cm diameter Petri dishes. […] The Petri dishes were placed in the incubator at 37 °C and the inhibition zones were observed after 24 hr.
smiles,measurement,setting,value
N=C1NCCC([C@@H]2NC(=O)/C(=C/NC(N)=O)NC(=O)[C@H](CNC(=O)C[C@@H](N)CCCN)NC(=O)[C@H](CO)NC(=O)[C@@H](N)CNC2=O)N1 (stereo in doubt) [CMN IIA],Km,Cph [1],460 µM
same,phosphorylation by Cph in couple enzyme assay,"Cph [2]; CMN IIA and ATP, absorbance at 340 nm",decrease in absorbance at 340 nm
same,"absorbance at 340 nm, Average of triplicate",Cph [2]; time 00:00:00,1.495
same,"absorbance at 340 nm, Average of triplicate",Cph [2]; time 00:01:00,1.379
same,"absorbance at 340 nm, Average of triplicate",Cph [2]; time 00:02:00,1.219
same,"absorbance at 340 nm, Average of triplicate",Cph [2]; time 00:03:00,1.045
same,"absorbance at 340 nm, Average of triplicate",Cph [2]; time 00:04:00,0.85
same,"absorbance at 340 nm, Average of triplicate",Cph [2]; time 00:05:00,0.6453
same,"absorbance at 340 nm, Average of triplicate",Cph [2]; time 00:06:00,0.4483
same,"absorbance at 340 nm, Average of triplicate",Cph [2]; time 00:07:00,0.303
same,"absorbance at 340 nm, Average of triplicate",Cph [2]; time 00:08:00,0.2213
same,"absorbance at 340 nm, Average of triplicate",Cph [2]; time 00:09:00,0.1687
same,"absorbance at 340 nm, Average of triplicate",Cph [2]; time 00:10:00,0.136
same,"absorbance at 340 nm, Average of triplicate",Cph [2]; time 00:11:00,0.1227
same,"absorbance at 340 nm, Average of triplicate",Cph [2]; time 00:12:00,0.1173
same,"absorbance at 340 nm, Average of triplicate",Cph [2]; time 00:13:00,0.1173
same,"absorbance at 340 nm, Average of triplicate",Cph [2]; time 00:14:00,0.1173
same,"absorbance at 340 nm, Average of triplicate",Cph [2]; time 00:15:00,0.1177
same,phosphotransferase activity of variant,Cph001^D189N; CMN IIA + ATP,complete loss of phosphotransferase activity
same,"absorbance at 340 nm, Average of triplicate",Cph001^D189N; time 00:00:00,1.495
same,"absorbance at 340 nm, Average of triplicate",Cph001^D189N; time 00:01:00,1.553
same,"absorbance at 340 nm, Average of triplicate",Cph001^D189N; time 00:02:00,1.591
same,"absorbance at 340 nm, Average of triplicate",Cph001^D189N; time 00:03:00,1.622
same,"absorbance at 340 nm, Average of triplicate",Cph001^D189N; time 00:04:00,1.655
same,"absorbance at 340 nm, Average of triplicate",Cph001^D189N; time 00:05:00,1.685
same,"absorbance at 340 nm, Average of triplicate",Cph001^D189N; time 00:06:00,1.709
same,"absorbance at 340 nm, Average of triplicate",Cph001^D189N; time 00:07:00,1.733
same,"absorbance at 340 nm, Average of triplicate",Cph001^D189N; time 00:08:00,1.755
same,"absorbance at 340 nm, Average of triplicate",Cph001^D189N; time 00:09:00,1.775
same,"absorbance at 340 nm, Average of triplicate",Cph001^D189N; time 00:10:00,1.791
same,"absorbance at 340 nm, Average of triplicate",Cph001^D189N; time 00:11:00,1.804
same,"absorbance at 340 nm, Average of triplicate",Cph001^D189N; time 00:12:00,1.814
same,"absorbance at 340 nm, Average of triplicate",Cph001^D189N; time 00:13:00,1.823
same,"absorbance at 340 nm, Average of triplicate",Cph001^D189N; time 00:14:00,1.83
same,"absorbance at 340 nm, Average of triplicate",Cph001^D189N; time 00:15:00,1.791
same,phosphotransferase activity of variant,Cph001^D189A; CMN IIA + ATP,complete loss of phosphotransferase activity
same,"absorbance at 340 nm, Average of triplicate",Cph001^D189A; time 00:00:00,1.495
same,"absorbance at 340 nm, Average of triplicate",Cph001^D189A; time 00:01:00,1.482
same,"absorbance at 340 nm, Average of triplicate",Cph001^D189A; time 00:02:00,1.504
same,"absorbance at 340 nm, Average of triplicate",Cph001^D189A; time 00:03:00,1.549
same,"absorbance at 340 nm, Average of triplicate",Cph001^D189A; time 00:04:00,1.574
same,"absorbance at 340 nm, Average of triplicate",Cph001^D189A; time 00:05:00,1.588
same,"absorbance at 340 nm, Average of triplicate",Cph001^D189A; time 00:06:00,1.596
same,"absorbance at 340 nm, Average of triplicate",Cph001^D189A; time 00:07:00,1.602
same,"absorbance at 340 nm, Average of triplicate",Cph001^D189A; time 00:08:00,1.612
same,"absorbance at 340 nm, Average of triplicate",Cph001^D189A; time 00:09:00,1.625
same,"absorbance at 340 nm, Average of triplicate",Cph001^D189A; time 00:10:00,1.641
same,"absorbance at 340 nm, Average of triplicate",Cph001^D189A; time 00:11:00,1.654
same,"absorbance at 340 nm, Average of triplicate",Cph001^D189A; time 00:12:00,1.662
same,"absorbance at 340 nm, Average of triplicate",Cph001^D189A; time 00:13:00,1.67
same,"absorbance at 340 nm, Average of triplicate",Cph001^D189A; time 00:14:00,1.682
same,"absorbance at 340 nm, Average of triplicate",Cph001^D189A; time 00:15:00,1.69
same,Kd,Cph001,1.24 ± 0.08 µM
same,zone of inhibition at 12.5 µg/disc,[3],17 mm
same,zone of inhibition at 50 µg/disc,[3],22 mm
same,zone of inhibition at 100 µg/disc,[3],24 mm
same,zone of inhibition at 200 µg/disc,[3],27.5 mm
